Consider 8 molecules from US5147876A, “2,6-di,2,4,6-, 2,5,6-tri and 2,4,5,6-tetra-substituted pyrimidines, their pharmaceutically acceptable salts, pharmaceutical compositions containing same and their use in the treatment of neurological diseases” (Mitsui Petrochemical Industries, Ltd., priority 1988, dated 1992).

Series [1] has as its system neuro-2a (mouse neuroblastoma cells). Description: Action on neuro-2a: proportion of cells containing outgrown neurites. In kind it is cell-based. Conditions: mean ± S.D. In a few lines: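 Read-out is the percentage of neurite-bearing cells (neurite ≥2× long cell diameter), counted microscopically over more than 200 cells per well. Before fixation and staining, neuro-2a cells (1,000/well, DMEM + 10% FCS) were cultured for one day at 37 °C; up to six compound concentrations, three runs each.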

The nature of another series: Acute toxicity on mice. It is filed as in vivo. The note with it: mouse, in vivo, ip, 24 hours after administration; read-out: Estimated LD50. Here is the method: The acute toxicity of the compounds of the invention was examined by the following method.
Male ddy-strain 5-week old mice, 4-6- per group, were used as experimental animals. Each of the compounds was intraperitoneally (i.p.), and the toxicity of the compound was assessed 24 hours after the administration.

Series [2] relates to NS-20Y (mouse neuroblastoma cells). As to the kind of experiment: Activity on NS-20Y cells: appearance of neurites. It is filed as cell-based. In short, it runs like this: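 Mouse neuroblastoma NS-20Y cells were grown in polyornithine-coated dishes in DMEM with 10 % FCS, 100 units/ml penicillin G sodium and 100 micrograms/ml streptomycin sulfate, at 37° C under 5 % carbon dioxide, and exposed to compound. Cells were fixed with 4 % glutaraldehyde, stained with 0.05 % methylene blue, and the fraction bearing neurites at least twice the cell's long diameter was counted microscopically.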

Molecules are shown by their SMILES. A value given as a limit tells only on which side of the number the result lay.

In general, LD50 refers to the dose at which mortality reaches 50%. As for `CN(C(=O)c1ccccc1)c1ccnc(N2CCCCC2)n1` [Compound 136], the “Number of cells having neurites with a length at least two times the diameter of each cell/total number of cells” value (shortened to “Number … of each cell/total number of cells”) in series [1] (0.1 mM) stood at 11.6 ± 6.3%; in series [1] (0.3 mM), 12.1 ± 2.9%. Further, the LD50 at 24 h in “Acute toxicity on mice” is over 1000 mg/kg. The “Number of cells in which neurites appeared/total number of cells” value in series [2] (24 hours, 0.1 mM) was 9/50; in series [2] (24 hours, 0.4 mM), 42/50; in series [2] (48 hours, 0.4 mM), 15/50.
With `CC1CCN(c2nccc(N(C)C(=O)c3ccccc3)n2)CC1` [Compound 144], the “Number … of each cell/total number of cells” value in series [1] (0.1 mM) is 13.7 ± 7.8%; in series [1] (0.3 mM), 33.8 ± 8.6%. Moreover, the median lethal dose (LD50) at 24 h in the series “Acute toxicity on mice” was over 1000 mg/kg. The “Number of cells in which neurites appeared/total number of cells” value is 37/50 in series [2] (24 hours, 0.1 mM); 6/50 in series [2] (48 hours, 0.025 mM); 8/52 in series [2] (48 hours, 0.05 mM); 31/50 in series [2] (48 hours, 0.1 mM).
For `CN(C(=O)c1ccccc1)c1ccnc(N2CCC(C(C)(C)C)CC2)n1` [Compound 152], the “Number … of each cell/total number of cells” value came out at 6.2 ± 2.3% in series [1] (0.03 mM) and 33.8 ± 4.7% in series [1] (0.1 mM). Besides, in “Acute toxicity on mice”, the LD50 at 24 h was over 1000 mg/kg. In addition, the “Number of cells in which neurites appeared/total number of cells” value in series [2] (24 hours, 0.05 mM) is 3/50; in series [2] (48 hours, 0.025 mM), 2/50.
For the molecule `O=C(Nc1ccnc(N2CCC(c3ccccc3)CC2)n1)c1ccccc1` [Compound 160], the “Number … of each cell/total number of cells” value in series [1] (0.1 mM) worked out at 11.3 ± 6.3%; in series [1] (0.3 mM) it was 6.7 ± 4.3%. The LD50 at 24 h in the series “Acute toxicity on mice” is over 1000 mg/kg. Besides, the “Number of cells in which neurites appeared/total number of cells” value in series [2] (24 hours, 0.5 mM) is given as 10/53; in series [2] (48 hours, 0.5 mM), 2/50.
Regarding `CN(C(=O)C=Cc1ccccc1)c1ccnc(N2CCC(c3ccccc3)CC2)n1` [Compound 170-2], the “Number … of each cell/total number of cells” value is listed as 14.7 ± 1.1% in series [1] (0.1 mM), 5.6 ± 2.1% in series [1] (0.3 mM) and 13.9 ± 3.0% in series [1] (1 mM). In “Acute toxicity on mice”, the LD50 at 24 h is 500 to 1000 mg/kg. Moreover, the “Number of cells in which neurites appeared/total number of cells” value in series [2] (24 hours, 0.1 mM) is recorded as 3/50; in series [2] (48 hours, 0.1 mM), 2/50.
In the case of `CCN(C(=O)c1ccccc1)c1ccnc(N2CCC(c3ccccc3)CC2)n1` [Compound 176], the “Number … of each cell/total number of cells” value was found to be 5.3 ± 1.9% in series [1] (0.03 mM) and 3.2 ± 3.1% in series [1] (0.1 mM). The LD50 at 24 h in the series “Acute toxicity on mice” is over 1000 mg/kg. The “Number of cells in which neurites appeared/total number of cells” value is 8/50 in series [2] (24 hours, 0.1 mM) and 2/50 in series [2] (48 hours, 0.02 mM).
Take `CCCN(C(=O)c1ccccc1)c1ccnc(N2CCC(c3ccccc3)CC2)n1` [Compound 184]: the “Number … of each cell/total number of cells” value in series [1] (0.1 mM) amounted to 18.8 ± 4.7%; in series [1] (0.3 mM), 16.0 ± 2.4%. For the same molecule, the LD50 at 24 h in the series “Acute toxicity on mice” is over 1000 mg/kg. For the same molecule, the “Number of cells in which neurites appeared/total number of cells” value was 8/50 in series [2] (24 hours, 0.02 mM); 5/48 in series [2] (24 hours, 0.1 mM); 3/50 in series [2] (48 hours, 0.02 mM).
With `O=C(c1ccccc1)N(Cc1ccccc1)c1ccnc(N2CCC(c3ccccc3)CC2)n1` [Compound 192], the “Number … of each cell/total number of cells” value in series [1] (0.3 mM) was determined as 12.1 ± 1.5%; in series [1] (1 mM), 14.6 ± 1.0%. In addition, the LD50 at 24 h in “Acute toxicity on mice” was 500 to 1000 mg/kg. Moreover, the “Number of cells in which neurites appeared/total number of cells” value is listed as 23/50 in series [2] (24 hours, 0.4 mM) and 4/50 in series [2] (48 hours, 0.4 mM).
